Data taken from patent publication US20200010910A1, “Cytotoxic Chemotherapy-Based Predictive Assays for Acute Myeloid Leukemia” (The Regents of The University of California, priority 2017, published 2020).

Tests used:
[1] = test system: 5637 and 5637R bladder cancer cell lines; test: cytarabine-DNA adducts by AMS, CIV and bolus type treatment; assay type: cell-based, human; details: low dose or high dose; CIV and bolus treatment regimens
Protocol: Sensitive and resistant bladder cancer cells were treated with Ara-C in culture. Two treatment conditions were used, one to mimic clinically continuous infusion (CIV) and one to mimic clinically bolus infusion (bolus infusions use a much higher Ara-c dose). The day before treatment, one million bladder cancer cells were seeded in 60-mm dishes and allowed to attach overnight. To simulate CIV treatment, the bladder cancer cell lines were exposed in growth medium with a low (10 nM) or a high (1 μM) dose of ARA-C supplemented with 8 nM ^14C-labeled ARA-C(1000 dpm/mL-20-0.4 mCi/mmol specific activity (Moravek Biochemicals, Inc.) over 24 h (FIG. 25A). At 24 hrs, the cells were harvested and washed for subsequent DNA isolation using the Wizard Genomic DNA Purification Kit. To simulate bolus treatment, the bladder cancer cell lines were exposed in growth medium with a low dose (3 μM) or a high dose ([…]; a highly toxic concentration for these cell lines) supplemented with 0.8 nM ^14C-labeled ARA-C (0.0001 mCi/mmol specific activity) for 4 h, followed by 20 h in drug-free media (FIG. 25B). After a 4-hour incubation, the cells were washed three times with PBS and cultured in drug-free media for an additional 20 hours. DNA from cells isolated at 24 hours was then purified. […] The ratios of ^14C to total C were measured by AMS, and drug-DNA adducts per ten million nucleotides were calculated.

THP-1 [2] = test: ARA-C incorporation into DNA by AMS; assay type: cell-based, human; details: THP-1 (least sensitive); 1.6 nM or 16 nM ARA-C 24 hrs
Protocol: (§1) MV-4-11, THP-1, and MOLM-13 cells are human, immortalized, myelogenous leukemia cell lines that proliferate continuously in suspension. These cell lines serve as a cell culture model for AML. Suspension cultures consisting of two million cells in […] culture dishes were treated with ARA-C for 24 hrs (to simulate CIV) prior to DNA isolation. The cultures were dosed with a low (1.6 nM) or a high (16 nM) dose of ARA-C supplemented with 0.8 nM ^14C-labeled ARA-C (100 dpm/mL, 2.4-16.7 mCi/mmol specific activity), and isolated DNA was analyzed by AMS to determine drug-DNA adduct levels. The suspension cell lines were dosed in primary cell media (IMDM+20% BIT9500 serum substitute, 20 ng/mL IL-3, 10 ng/mL IL-6, 20 ng/mL G-CSF, 20 ng/mL GM-CSF, 50 ng/mL SCF) to mimic the dosing conditions that will be used for patient-derived AML samples. This media is used for short term culturing of primary AML cells that are previously collected from patients, frozen and stored in a biobank.

MOLM-13 [3] = test: ARA-C incorporation into DNA by AMS; assay type: cell-based, human; details: MOLM-13 (most sensitive); 1.6 nM or 16 nM ARA-C 24 hrs
Protocol: as §1

5637 [4] = test: CellTiter 96 Aqueous cell proliferation assay; assay type: cell-based; details: Homo sapiens, 72 hr continuous treatment
From the text: (§2) Correlation of IC50 to the AML induction drugs Dox and Ara-C were first performed with the adherent bladder cancer cell lines 5637 and 5637R for cytarabine and with the adherent ovarian cancer cell lines A2780 and A2780ADR for doxorubicin. Cell lines 5637 and 5637R (Ara-C resistant) have been described previously (20). A2780 and A2780ADR (doxorubicin resistant) were purchased from Sigma-Aldrich and grown as recommended. IC50 values were obtained by plating 4000 cells per well in 96-well plates the night before treatment, and then allowing the cells to adhere over night. Leukemia cell lines capable of continuous proliferation in suspension and having differential sensitivities to Dox and Ara-C were also obtained for correlation analysis. MV-4-11 (acute monocytic leukemia) and THP-1 (acute monocytic leukemia) human cell lines were purchased from American Type Culture Collection (ATCC, Manassas, Va.). MOLM-13 (acute myeloid leukemia) human cells were purchased from AddexBio (San Diego, Calif.). For leukemia cell lines (suspension cultures), approximately 8,000-11,000 cells were seeded per well in 96-well plates the day of treatment. MV-4-11 cells were grown in IMDM (Iscove's Modified Dulbecco's Media) with 10% FBS, 100 U/ml penicillin, and 100 μg/ml streptomycin. THP-1, A2780, and A2780ADR cells were grown in RPMI-1640 media with 10% FBS, 100 U/ml penicillin, and 100 μg/ml streptomycin. 5637, 5637R, and MOLM-13 cells were grown in RPMI-1640 media with 20% FBS, 100 U/ml penicillin, and 100 μg/ml streptomycin. All cells were cultured at 37° C. in a humidified incubator. The cells were then incubated with increasing doses of cytarabine or doxorubicin continuously for 72 hours. IC50 values were determined using the CellTiter 96 Aqueous Non-Radioactive Cell Proliferation Assay (Promega). […] As shown, 5637 and 5673R have differential sensitivity to cytarabine, while A2780 and A2780ADR have differential sensitivity to doxorubicin. The leukemic suspension cell lines also have differential sensitivity to these two drugs.

THP-1 [5] = test: CellTiter 96 Aqueous cell proliferation assay; assay type: cell-based; details: Homo sapiens, 72 hr continuous treatment
From the text: as §2

MOLM-13 [6] = test: CellTiter 96 Aqueous cell proliferation assay; assay type: cell-based; details: Homo sapiens, 72 hr continuous treatment
From the text: as §2

MV-4-11 = test: CellTiter 96 Aqueous cell proliferation assay; assay type: cell-based; details: Homo sapiens, MV4-11, 72 hr continuous treatment
From the text: as §2

5637R [7] = test: CellTiter 96 Aqueous cell proliferation assay; assay type: cell-based; details: Homo sapiens, 72 hr continuous treatment
From the text: as §2

[8] = test system: five bladder cancer cell lines (5637, T24, TCCSUP, HT1197, and J82); test: oxaliplatin-DNA adducts by AMS in cell culture; assay type: cell-based; details: 4 hours
Protocol: Cells were seeded in 60-mm dishes at a density of 1×10^6 cells/dish and allowed to attach overnight in a 37° C. humidified atmosphere containing 5% C02. […] The cells were then washed twice with phosphate-buffered solution (PBS) and maintained thereafter with oxaliplatin-free culture media. DNA was harvested at hours 0, 2, 4, 8, 24 hours using the modified Wizard procedure described previously. Ten micrograms of DNA per sample was converted to graphite and measured by AMS for ^14C quantification. Triplicate sets of AMS experiments were performed and the data was plotted as time vs oxaliplatin-DNA adducts per 10^8 nt. […] Oxaliplatin-DNA monoadducts could be detected in all cell lines at all time points. […] Therefore, drug-DNA damage from microdoses of oxaliplatin are predictive of the extent of DNA modification caused by the therapeutic dose in cell culture.

[9] = chemotherapy; cited from earlier work
[10] = test system: tumor biopsy sample from the bone marrow; test: microdose-induced oxaliplatin-DNA adducts in patient tumor biopsy; assay type: in vivo, human; details: metastatic breast patient; 48 hours post microdose; n=2 repeats
Protocol: Therefore, a tumor biopsy sample from the bone marrow of this same metastatic breast patient was collected 48 hours post microdose administration and analyzed by AMS for oxaliplatin-DNA adducts. […] Therefore, in one embodiment, a useful range of oxaliplatin-DNA adduct frequency after microdosing is 0.5-50 adducts per 10^8 nt.

PBMC = test: microdose-induced oxaliplatin-DNA adducts in patients; assay type: in vivo, human
Protocol: The plasma samples were additionally processed to isolate PBMC, and the DNA was extracted and analyzed using AMS to calculate the oxaliplatin-DNA adduct frequency (both monoadducts and diadducts combined) (FIG. 17B). […] These adduct levels then decrease substantially out to 48 hours post microdosing. […] Overall, the plasma PK and time course of oxaliplatin-DNA adduct formation and repair in PBMC allowed determination of the best time to dose patients prior to biopsy in order to maximize the oxaliplatin-DNA adduct formation, allow for repair in those patients with high repair capacity, minimize the risk of radioactive contamination of PBMC and tumor samples, and also minimize the risk of radioactive contamination of the operating room by blood-borne radiocarbon.
Plasma samples were collected, filtered, and counted by liquid scintillation counting to determine plasma oxaliplatin levels. […] The range of microdose-induced adduct levels (frequencies) for the three colorectal patients was 0.1-6 adducts per 10^8 nt.

[11] = sterile solution in water, storage at −20° C.
Protocol: Radiolabeled carboplatin containing C^14 carbon atoms in the cyclobutane dicarboxylic acid group was formulated for human use as a sterile, pyrogen free solution at 5 mg/mL in water.

5637 [12] = test: MTT assay IC50, bladder cancer cell line; assay type: cell-based, human; details: 72 hours
Protocol: Thus, we measured the IC50 of the six NSCLC cell lines from Example 2 to both cisplatin and carboplatin to determine if the sensitivity of these six NSCLC cell lines to the two drugs are correlated.
(§3) Drug-DNA adduct formation and repair was measured by accelerator mass spectrometry.
(§4) These two cell lines were also cultured with a range of concentrations of cisplatin, carboplatin, gemcitabine, doxorubicin, methotrexate and vinblastine for 72 hours to determine IC50 for these other drugs (FIG. 16C). These drugs were chosen because of their frequent use in the treatment of bladder cancer.

[13] = human plasma pharmacokinetics of [14C]oxaliplatin microdose; assay type: in vivo; details: metastatic breast cancer patient; IV microdose
Protocol: Peripheral blood specimens were drawn into BD Vacutainer CPT™ tubes with sodium heparin from the other arm at specific time points before and after the administration of the microdose. Plasma samples collected at −5 min, 5 min, 15 min, 30 min, 2 h, 4 h, 8 h, 24 h, and 48 h post microdose injection were analyzed by liquid scintillation counting (FIG. 17A).

[14] = safety of radiolabeled microdose in patients; details: IV microdose, 1% of the therapeutic dose
Protocol: Microdoses of the [^14C]Carboplatin were administered to human cancer patients as a diagnostic reagent, followed by full dose platinum-based chemotherapy and evaluation of response. Within four weeks of the [^14C]carboplatin microdose, these patients received standard of care chemotherapy for their disease, which included either carboplatin or cisplatin. The patient population consisted of non-small cell lung cancer patients (NSCLC), stage IV with measurable lesions, and bladder transitional cell carcinoma (TCC) patients, stage II disease and above for neoadjuvant treatment, or stage III and IV metastatic disease with measurable lesions for palliative chemotherapy. Patients were identified for this study as having measurable lesions using the Response Evaluation Criteria in Solid Tumor (RECIST), an Eastern Cooperative Oncology Group performance status of <2, and adequate bone marrow and vital organ function. PBMC and tumor tissue were collected from the patients for analysis of carboplatin-DNA monoadduct frequencies. Toxicity of the [^14C]carboplatin diagnostic reagent administered as a microdose was assessed using Common Terminology Criteria for Adverse Events (CTCAE). Toxicities of grade 3 and above were also collected for patient specific toxic response to full dose chemotherapy for correlation analysis to carboplatin-DNA monoadduct frequency. Patient response to chemotherapy was evaluated using the RECIST for correlation to carboplatin-DNA monoadduct frequency.
The dose of carboplatin in the diagnostic microdose was chosen to be sub-toxic and non-therapeutic, to minimize patient chemical and radiation exposure, and to result in AMS measurable carboplatin-DNA monoadducts. Nineteen patients have been administered at least one microdose of [^14C]carboplatin via IV infusion as a diagnostic reagent. Patient toxicity related to the microdose was monitored from the time of IV microdose until the patients received their first chemotherapy. […] The total radioactive dose given to a 75 kg patient after an IV microdose of [^14C]carboplatin is calculated to be 338 μCi. […]

5637R [15] = test: MTT assay IC50, oxaliplatin-resistant bladder cancer sub-line; assay type: cell-based, human
Protocol: as §3
To confirm that 5637 was the original ATCC cell line, and that 5637R originated from the parental 5637 cell line, both cultures were sent to the ATCC Cell Line Authentication Service for cell verification per the ATCC protocol. More specifically, fifteen short tandem repeat (STR) loci plus the gender determining locus, amelogenin, were amplified using the commercially available PowerPlex® 16HS Kit from Promega.
as §4

5637 [16] = test: oxaliplatin-DNA adduct formation and repair by AMS; assay type: cell-based, human
Protocol: (§5) To characterize the oxaliplatin-DNA adduct frequency in these cell lines, cells from each cell line were seeded in 60-mm dishes at a density of 1×10^6 cells/dish and allowed to attach overnight in a 37° C. humidified atmosphere containing 5% CO2. […] The cells were then washed twice with phosphate-buffered solution (PBS) and maintained thereafter with oxaliplatin-free culture media. DNA was harvested at hours 0, 2, 4, 8, 24, 28 and 48 hours using a Promega Wizard DNA Purification Kit. Ten micrograms of DNA per sample was converted to graphite and measured by AMS for ^14C quantification. Triplicate sets of AMS experiments were performed and the data was plotted as time vs oxaliplatin-DNA adducts per 10^8 nt.

5637R [17] = test: oxaliplatin-DNA adduct formation and repair by AMS; assay type: cell-based, human
Protocol: as §5

[18] = 24 hour culture without oxaliplatin

With `Nc1ccn([C@@H]2O[C@H](CO)[C@@H](O)[C@@H]2O)c(=O)n1` [cytarabine] the “cytarabine-DNA adducts in resistant 5637R compared to parent 5637” value [1] was “fewer cytarabine-DNA adducts”, the “levels of ARA-C incorporation among three AML cell lines” value (THP-1 [2]) was “lowest levels of ARA-C incorporation” and the “levels of ARA-C incorporation among three AML cell lines” value (MOLM-13 [3]) was “highest levels of ARA-C incorporation”. The IC50 5637 [4] was 5.69 µM, the IC50 (THP-1 [5]) was 4.4 µM and the IC50 (MOLM-13 [6]) was 0.018 µM. For the same molecule, the IC50 (MV-4-11) was 0.353 µM and the IC50 (5637R [7]) was 60.1 µM.

For `O=C1[O][Pt]2([NH][C@@H]3CCCC[C@H]3[NH]2)[O]C1=O` [oxaliplatin], the “DNA damage concentrations (oxaliplatin-DNA adducts)” value ([8]; microdose 0.1 μM oxaliplatin) is given as 50-100 adducts per 10^8 nt, the “DNA damage concentrations (oxaliplatin-DNA adducts)” value ([8]; therapeutic dose 10 μM oxaliplatin) is given as 5,000-10,000 adducts per 10^8 nt and the “peak human oxaliplatin plasma concentration during chemotherapy” value [9] is given as 10 µM. The oxaliplatin-DNA adduct frequency [10] was 14.6±4.9 per 10^8 nt, the “maximum oxaliplatin-DNA adducts in PBMC” value (PBMC; metastatic breast cancer patient, first 4 hours after microdose) was 8 adducts per 10^8 nt and the “range of microdose-induced adduct levels (frequencies)” value (PBMC; three colorectal patients, PBMC) was 0.1-6 adducts per 10^8 nt. For the same molecule, the “loss of radiopurity per year” value [11] was under 2%, the IC50 5637 [12] was 2.45 µM and the “T1/2 (α), first (fast) phase” value [13] was 13.3 min. The clinical side effects [14] was “None of the clinical side effects associated with standard therapeutic doses of oxaliplatin were observed”, the “increase of IC50 of 5637R compared to parental 5637” value (5637R [15]) was “approximately 10 fold” and the IC50 (5637R [15]; 5637R, 72 hours) was 27.3 µM. For the same molecule, the “oxaliplatin-DNA adducts at 24 hours” value (5637 [16]; 10 μM for 24 hours) was 710.0±32.2 adducts per 10^8 nucleotide, the repair rate 5637 [16, 18] was 1.34±0.30 adducts per 10^8 nucleotides-hour and the “area under curve (AUC) of oxaliplatin-DNA adducts” value (5637 [16]; 48 hour study period) was 27,720±2,985 adducts per 10^8 nucleotide-hour. The “oxaliplatin-DNA adducts at 24 hours” value (5637R [17]; 10 μM for 24 hours) was 259.2±37.3 adducts per 10^8 nucleotide, the repair rate (5637R [17]; [18]) was 3.48±0.15 adducts per 10^8 nucleotide-hour and the “area under curve (AUC) of oxaliplatin-DNA adducts” value (5637R [17]; 48 hour study period) was 9,426±2457 adducts per 10^8 nucleotide-hour.
